Reference: US20240226211A9, “SEAWEED EXTRACTS, ISOLATED COMPOUNDS, AND METHODS OF TREATMENT” (University of Florida Research Foundation, Incorporated, priority 2017, published 2024)
Entries after “also recorded” stand apart in the source; their conditions may differ.

Experiments:
Keap1 (Cys-151) = target: T1, Keap1 (Cys-151) (Homo sapiens, UniProt Q14145); test: Keap1 Cys-151 reactivity in co-transfected HEK293 cells; format: cell-based; details: for Keap1-associated Cul3 / Keap1-Cul3 interaction: Keap1-CBD and HA-Cul3
T1 construct: expressed in transfected cells; host or cells: HEK293
Text: The ARE-luciferase reporter construct (ARE-luc) contains the core sequence of human NQO1-ARE1. […] Mol. Cell. […] The Keap1-CBD plasmid carries the entire open reading frame (ORF) of human Keap1 fused to the chitin binding domain (CBD) of the Bacillus circulans chitinase A1 gene upstream of the Keap1 stop codon. Oligonucleotide-directed mutagenesis was used to generate the Keap1-C151S-CBD and Keap1-C288S-CBD plasmids. The HA-Cul3 plasmid was constructed by fusing an N-terminal hemagglutinin (HA) tag with a cDNA sequence coding for amino acids 1-380 of human Cul3 gene. The Gal4-Neh2 expression vector contains the codons for the first 97 amino acids (Neh2 domain) of human Nrf2 fused to the ORF of the Gal4 DNA-binding domain
The reactivity at the amino acid level of KEAP1 was then investigated. […] In order to evaluate specific cysteine residues which may be alkylated in the presence of cymopols, HEK293 cells were co-transfected with either a mock plasmid, a wild-type Keap1-CBD, or a Keap1-C151S-CBD and HA-Cul3 (to evaluate Cul3 binding inhibition upon cymopol addition), HA-Nrf2 (to evaluate Nrf2-Keap1 interactions), or Gal4-Neh2 and HA-Ub (to evaluate ubiquitination patterns of Nrf2).

[1] = test system: NO production in MEF cells; test: NO assay in MEF cells; format: cell-based, murine; details: stimulated with IFN-γ and TNF-α
Method: RAW264.7 cells (2×10^4 cells/well), wild-type (8×10^3 cells/well), Nrf2−/−(7×10^3 cells/well), and Keap1−/−(5×10^3 cells/well) MEF were seeded into 96-well format. Cells were pretreated for 1 h with a solvent control (DMSO, 1%, v/v) or serial dilutions of isolated compounds or extracts before addition of LPS (1 μg/mL) or IFN-γ (10 ng/mL). […] In each case, 50 μL of the media was combined with 50 μL Griess Reagent (Promega). Absorbance was measured at 540 nm and compared with a calibration curve generated using the provided […] standard.

Bacillus cereus = test: Preliminary antibacterial testing; format: cell-based
[2] = test system: ARE-driven and NFκB driven genes; test: Gene transcription in wildtype zebrafish embryos; format: in vivo
[3] = test system: ARE-luciferase reporter (human NQO1-ARE) in IMR-32 cells; test: ARE-luc reporter assay in IMR-32 cells; format: cell-based; details: IMR-32 cell line
Text: The ARE-luciferase reporter construct (ARE-luc) contains the core sequence of human NQO1-ARE1. The mock plasmid (pcDNA3-mRFP) was purchased from Addgene (plasmid 13032). The following plasmids were reported by Zhang et a/.2003 [Zhang, D. D., and Hannink, M. (2003) Distinct cysteine residues in Keap1 are required for Keap1-dependent ubiquitination of Nrf2 and for stabilization of Nrf2 by chemopreventive agents and oxidative stress. Mol. Cell. Biol. 23, 8137-8151]. The Keap1-CBD plasmid carries the entire open reading frame (ORF) of human Keap1 fused to the chitin binding domain (CBD) of the Bacillus circulans chitinase A1 gene upstream of the Keap1 stop codon. Oligonucleotide-directed mutagenesis was used to generate the Keap1-C151S-CBD and Keap1-C288S-CBD plasmids. The HA-Cul3 plasmid was constructed by fusing an N-terminal hemagglutinin (HA) tag with a cDNA sequence coding for amino acids 1-380 of human Cul3 gene. The Gal4-Neh2 expression vector contains the codons for the first 97 amino acids (Neh2 domain) of human Nrf2 fused to the ORF of the Gal4 DNA-binding domain
An ARE-luciferase reporter plasmid and CMV-GFP plasmid (to monitor transfection efficiency) were co-transfected into a human androgen-sensitive prostate cancer cell line, LNCaP (6×10^4 cells/well), and a human neuroblastoma cell line, IMR-32 (3×10^4 cells/well), using Fugene® HD (Roche Diagnostics) in 96-well format. […] J Biol Chem. 2002; 277:388-394; Lee J M, Hanson J M, Chu W A, Johnson J A. Phosphatidylinositol 3-kinase, not extracellular signal-regulated kinase, regulates activation of the antioxidant-responsive element in IMR-32 human neuroblastoma cells. […] After 24 hours of incubation, cells were treated with extracts from Cymopolia barbata, a negative control (DMSO, 1%, v/v), and a positive control ([…] sulforaphane, SF, and tert-butylhydroquinone, tBHQ, respectively.) 24 hours post-treatment, luciferase activity was detected using BriteLite detection reagent (PerkinElmer). […]

[4] = Toxicity observation in mice after oral gavage; format: in vivo; details: oral gavage 3 consecutive days
Method: The experiments were approved by the Institutional Animal Care & Use Committee at the University of Florida. Groups of 5-10 wild type male mice (C57BL/6J) were used for each treatment type. The mice were maintained under approved standard conditions. Cymopol (1) and the non-polar extract (NP extract) were dissolved in Chremophor EL (Sigma) containing 10% DMSO and administered via oral gavage for 3 consecutive days, with 24 h between each treatment. […] 12 h following the final treatment, the mice were euthanized in 100% CO2. The tissues were harvested immediately, frozen on dry ice, and kept at −80° C. until analyzed.

[5] = test system: large intestine transcriptome; test: RNAseq of mouse large intestine; format: in vivo
Text: Briefly, 1st strand cDNA is primed by a modified N6 primer (the SMART N6 CDS primer), then base-pairs with these additional nucleotides, creating an extended template. The reverse transcriptase then switches templates and continues transcribing to the end of the oligonucleotide, resulting single-stranded cDNA contains sequences that are complementary to the SMARTer oligonucleotide. The SMARTer anchor sequence and the N6 sequence serve as universal priming sites for DNA amplification by PCR for 10 cycles. […] Libraries were quantitated by Bioanalyzer and qPCR (Kapa Biosystems, catalog number: KK4824). Finally, the libraries were pooled equal molar concentration and sequenced by Illumina 2X75 NextSeq 500.
In preparation for sequencing, barcoded libraries were sized on the bioanalyzer, quantitated by QUBIT and qPCR (Kapa Biosystems, catalog number: KK4824). Individual samples were pooled equimolarly at 4 nM. […] For RNA seq, 50-100 million reads provided sufficient depth for transcriptome analysis.
The web-based analysis tool, IPA, was used to further investigate the effect of the cymopols on the large intestine.

[6] = test system: PGE2 production in RAW264.7 cells; test: PGE2 assay in RAW264.7 cells; format: cell-based, mouse; details: RAW264.7, IFN-γ
Method: RAW264.7 cells were seeded into a 96 well format at 4×10^4 cells/well and incubated overnight at 37° C. Cells were treated with a solvent control (DMSO, 1%, v/v) or serial dilutions of isolated compounds or extracts for 1 h before the addition of IFN-γ (10 ng/mL). […] The experiment was performed using the standard manufacturer's protocol.

Nrf2 = test: Nuclear translocation of NRF2 in IMR-32 cells; format: cell-based, human
Method: IMR-32 cells were seeded in 6-well format at 2×10^6 cells/well and incubated at 37° C. overnight. The cells were treated with a solvent control (DMSO, 1%, v/v) or serial dilutions of isolated compounds or extracts for the indicated periods of time. The cytosolic and nuclear extracts were separated and prepared using a commercial kit, NE-PER Nuclear and Cytoplasmic Extraction Reagents (Thermo Scientific). Briefly, cells were gently washed once with 200 μL at DPBS before being resuspended in 1 mL DPBS, transferred to a pre-chilled tube, and pelleted at 500×g for 3 min at 4° C. The supernatant was removed and cells were resuspended in ice-cold CER I containing 1% cOmplete, EDTA-free Protease Inhibitor Cocktail (v/v, Roche Diagnostics) by vigorous vortexing. After addition of ice-cold buffer CER II, the samples were vortexed vigorously for 5 s and incubated on ice for 1 min twice before being pelleted at 16,000×g for 5 min at 4° C. The supernatant was transferred to a fresh tube and used as cytosolic stock. The pellet was washed twice by adding 75 μL ice-cold DPBS, flicking, centrifuging, and removing the supernatant before resuspension in ice-cold buffer NER supplemented with 1% cOmplete, EDTA-free Protease Inhibitor Cocktail (v/v). […] Subsequently, the cellular and nuclear extracts were analyzed by immunoblot.

T1 sequence (Q14145 whole entry): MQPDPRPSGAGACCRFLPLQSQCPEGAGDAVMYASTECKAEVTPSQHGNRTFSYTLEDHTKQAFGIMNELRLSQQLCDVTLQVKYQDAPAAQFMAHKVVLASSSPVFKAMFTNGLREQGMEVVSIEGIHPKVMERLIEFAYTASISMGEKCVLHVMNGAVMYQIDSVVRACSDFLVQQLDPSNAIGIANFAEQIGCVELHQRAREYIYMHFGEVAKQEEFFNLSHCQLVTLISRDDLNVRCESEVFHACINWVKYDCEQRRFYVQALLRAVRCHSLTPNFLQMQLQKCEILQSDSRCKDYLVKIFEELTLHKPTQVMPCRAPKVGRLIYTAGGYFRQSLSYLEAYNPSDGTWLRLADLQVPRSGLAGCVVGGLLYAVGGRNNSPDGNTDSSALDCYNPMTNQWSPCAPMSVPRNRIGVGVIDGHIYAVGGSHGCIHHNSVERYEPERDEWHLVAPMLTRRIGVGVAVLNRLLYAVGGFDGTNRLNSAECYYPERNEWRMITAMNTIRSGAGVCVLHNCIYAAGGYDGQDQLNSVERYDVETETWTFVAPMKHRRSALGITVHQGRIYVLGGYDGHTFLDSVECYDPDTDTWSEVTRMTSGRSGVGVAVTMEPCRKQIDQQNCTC

CC(C)=CCC/C(C)=C/Cc1cc(O)c(Br)cc1O [Compound 1, (E)-2-bromo-5-(3,7-dimethylocta-2,6-dien-1-yl)benzene-1,4-diol]
Keap1-associated Cul3 / Keap1-Cul3 interaction (Keap1 (Cys-151)): increase binding of Keap1-Cul3 interaction | Keap1-associated Cul3 / Keap1-Cul3 interaction (Keap1 (Cys-151); listed as compound 1): reduced | dimerization of Keap1 (Keap1 (Cys-151); Keap1-CBD and HA-Nrf2, dependent on Cys-151): increase dimerization of Keap1 | Neh2 ubiquitination (Keap1 (Cys-151); wild-type Keap1, Gal4-Neh2 and HA-Ub, preliminary data): less Neh2 ubiquitination | levels of Neh2 (Keap1 (Cys-151); wild-type Keap1, preliminary data): higher levels of Neh2 | NO production in wild-type MEFs [1]: minimized NO production; also recorded: restore basal level of NO | anti-inflammatory effects in Nrf2−/− and Keap1−/− MEFs [1]: did not demonstrate appreciable anti-inflammatory effects | antibacterial activity (Bacillus cereus): inhibited | ARE-driven gene transcription [2]: increase in ARE-driven gene transcription | select NFκB driven genes [2]: decrease in select NFκB driven genes | activation of ARE-luc [3]: most active | apparent toxicity [4]: No apparent toxicity was observed | PI3K/Akt/mTOR pathway ([5]; large intestine RNAseq, IPA): greatly affected | Wnt/β-catenin or Sonic Hedgehog signalling ([5]; large intestine RNAseq, IPA): no notable difference | transcript levels of TNFα ([5]; large intestine, low dose): down-regulated | production of pro-inflammatory PGE2 [6]: effectively reduced the production | time after which increased nuclear NRF2 levels were seen (Nrf2; IMR-32 cells): 18 h | nuclear translocation of NRF2 (Nrf2; IMR-32 cells, 0, 1, 6 or 18 hours): induced nuclear translocation of NRF2
